From patent US4416884A, “Piperazinylbenzoheterocyclic compounds” (Otsuka Pharmaceutical Co., Ltd., priority 1978, dated 1983)
≈ marks a conversion by molar mass, not a printed value. Where two headings read alike, the source gives them in different places.

How the values were obtained:
Assay type in all cases: cell-based
[1] = system: Yersinia enterocolitica 0-5; experiment: antimicrobial activity, serial dilution method on agar plate
[2] = system: Streptococcus pneumoniae Type I; experiment: as above
Method in brief: (§1)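 Agar-plate serial dilution in Heart Infusion agar; inocula prepared at 1×10^8 cells/ml (O.D. 660 mμ=0.07 to 0.16) and at 1×10^6 cells/ml by dilution. Values are minimum inhibitory concentrations in mcg/ml.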

Hafnia alvei IFO 3731 = experiment: as above
Method in brief: as §1

[3] = system: Pseudomonas aeruginosa NCTC 10490; experiment: as above
Method in brief: as §1

[4] = system: Enterobacter aerogenes IFO 12979; experiment: as above; conditions: Klebsiella aerogenes
Method in brief: as §1

[5] = system: Bacillus subtilis PCI 219; experiment: as above
Method in brief: as §1

[6] = system: Yersinia enterocolitica 0-3; experiment: as above
Method in brief: as §1

[7] = system: Serattia marcescens IFO 12648; experiment: as above
Method in brief: as §1

Proteus rettgeri NIH 96 = experiment: as above; conditions: Providencia rettgeri
Method in brief: as §1

Escherichia Coli NIHJ = experiment: as above
Method in brief: as §1

[8] = system: Pseudomonas putida IFO 13696; experiment: as above
Method in brief: as §1

[9] = system: Pseudomonas aeruginosa ATCC 10145; experiment: as above
Method in brief: as §1

[10] = system: Streptococcus pneumoniae Type III; experiment: as above
Method in brief: as §1

Shigella Sonnei EW 33 = experiment: as above; conditions: read-out: Minimum Inhibitory Concentration
Method in brief: as §1

[11] = system: Staphylococcus aureus FDA 209 P; experiment: as above
Method in brief: as §1

Enterobacter cloacae = experiment: as above
Method in brief: as §1

[12] = system: Proteus vulgaris IID OX-19; experiment: as above; conditions: read-out: Minimum Inhibitory Concentration
Method in brief: as §1

[13] = system: Test Organism 21 (Bacillus subtilis PCI 219); experiment: influence of the addition of horse serum on the MIC
[14] = system: Vibrio anguillarum IFO 12710; experiment: antimicrobial activity on bacteria which cause infectious diseases in fish
Procedure: (§2) The antimicrobial activity of the following test compounds on various test organisms listed below was determined by the serial dilution method on agar plate (Heart Infusion agar produced by Difco Co.) (see CHEMOTHERAPY 22, pp. 1126-1128 (1974)), and the minimum inhibitory concentrations (mcg/ml) obtained are shown in Table 1 below.
(§3) A sample of each test organism was prepared so that the population of the organism was 1×10^8 cells/ml (O.D. 660 mμ=0.07 to 0.16) and 1×10^6 cells/ml (which was obtained by diluting the above 1×10^8 cells/ml preparation).
(§4) In the same manner as above, the antimicrobial activity of the following compounds on various test organisms which cause infectious diseases in fish was determined.

[15] = system: Aeromonas salmonicida IFO 12659; experiment: as above
Procedure: as §2, §3, §4

[16] = system: Aeromonas salmonicida IFO 12718; experiment: as above
Procedure: as §2, §3, §4

[17] = system: Pseudomonas fluorescens IFO 12568; experiment: as above
Procedure: as §2, §3, §4

[18] = system: Vibrio anguillarum IFO 13266; experiment: as above
Procedure: as §2, §3, §4

[19] = system: Aeromonas hydrophila IFO 12981; experiment: as above
Procedure: as §2, §3, §4

[20] = system: Aeromonas hydrophila IFO 12658; experiment: as above
Procedure: as §2, §3, §4

[21] = system: Pseudomonas fluorescens IFO 12180; experiment: as above; conditions: IFO12180, read-out: Minimum Inhibitory Concentration
Procedure: as §2, §3, §4

[22] = read-out: Minimum Inhibitory Concentration, inoculum 1 × 10^6 cells/ml
[23] = read-out: Minimum Inhibitory Concentration, inoculum 1 × 10^8 cells/ml

Which results are given for `CC1Cc2c(N3CCNCC3)ccc3c(=O)c(C(=O)O)cn1c23` (stereo not drawn) [C]?
MIC ([1]; Yersinia enterocolitica, 05, read-out: Minimum Inhibitory Concentration, inoculum 1 × 10^6 cells/ml): 1.6 µg/mL (≈ 5.11 µM); MIC ([1]; Yersinia enterocolitica, 05, read-out: Minimum Inhibitory Concentration, inoculum 1 × 10^8 cells/ml): 1.6 µg/mL (≈ 5.11 µM); MIC [2, 22]: 50 µg/mL (≈ 160 µM); MIC [2, 23]: 100 µg/mL (≈ 319 µM); MIC (Hafnia alvei IFO 3731; IFO3731, read-out: Minimum Inhibitory Concentration, inoculum 1 × 10^6 cells/ml): 0.8 µg/mL (≈ 2.55 µM); MIC (Hafnia alvei IFO 3731; IFO3731, read-out: Minimum Inhibitory Concentration, inoculum 1 × 10^8 cells/ml): 1.6 µg/mL (≈ 5.11 µM); MIC ([3]; NCTC10490, read-out: Minimum Inhibitory Concentration, inoculum 1 × 10^6 cells/ml): 3.1 µg/mL (≈ 9.89 µM); MIC ([3]; NCTC10490, read-out: Minimum Inhibitory Concentration, inoculum 1 × 10^8 cells/ml): 6.3 µg/mL (≈ 20.1 µM); MIC ([4]; IFO12979, read-out: Minimum Inhibitory Concentration, inoculum 1 × 10^6 cells/ml): 0.4 µg/mL (≈ 1.28 µM); MIC ([4]; IFO12979, read-out: Minimum Inhibitory Concentration, inoculum 1 × 10^8 cells/ml): 0.8 µg/mL (≈ 2.55 µM); MIC ([5]; PCI219, read-out: Minimum Inhibitory Concentration, inoculum 1 × 10^6 cells/ml): 3.1 µg/mL (≈ 9.89 µM); MIC ([5]; PCI219, read-out: Minimum Inhibitory Concentration, inoculum 1 × 10^8 cells/ml): 3.1 µg/mL (≈ 9.89 µM); MIC ([6]; Yersinia enterocolitica, 03, read-out: Minimum Inhibitory Concentration, inoculum 1 × 10^6 cells/ml): 1.6 µg/mL (≈ 5.11 µM); MIC ([6]; Yersinia enterocolitica, 03, read-out: Minimum Inhibitory Concentration, inoculum 1 × 10^8 cells/ml): 1.6 µg/mL (≈ 5.11 µM); MIC [7, 22]: 1.6 µg/mL (≈ 5.11 µM); MIC [7, 23]: 3.1 µg/mL (≈ 9.89 µM); MIC (Proteus rettgeri NIH 96; NIH96, read-out: Minimum Inhibitory Concentration, inoculum 1 × 10^6 cells/ml): 0.8 µg/mL (≈ 2.55 µM); MIC (Proteus rettgeri NIH 96; NIH96, read-out: Minimum Inhibitory Concentration, inoculum 1 × 10^8 cells/ml): 0.8 µg/mL (≈ 2.55 µM); MIC (Escherichia Coli NIHJ; [22]): 0.4 µg/mL (≈ 1.28 µM); MIC (Escherichia Coli NIHJ; [23]): 0.8 µg/mL (≈ 2.55 µM); MIC ([8]; IFO13696, read-out: Minimum Inhibitory Concentration, inoculum 1 × 10^6 cells/ml): 3.1 µg/mL (≈ 9.89 µM); MIC ([8]; IFO13696, read-out: Minimum Inhibitory Concentration, inoculum 1 × 10^8 cells/ml): 3.1 µg/mL (≈ 9.89 µM); MIC ([9]; ATCC10145, read-out: Minimum Inhibitory Concentration, inoculum 1 × 10^6 cells/ml): 6.3 µg/mL (≈ 20.1 µM); MIC ([9]; ATCC10145, read-out: Minimum Inhibitory Concentration, inoculum 1 × 10^8 cells/ml): 6.3 µg/mL (≈ 20.1 µM); MIC [10, 22]: 50 µg/mL (≈ 160 µM); MIC [10, 23]: 100 µg/mL (≈ 319 µM); MIC (Shigella Sonnei EW 33; inoculum 1 × 10^6 cells/ml): 1.6 µg/mL (≈ 5.11 µM); MIC (Shigella Sonnei EW 33; inoculum 1 × 10^8 cells/ml): 1.6 µg/mL (≈ 5.11 µM); MIC ([11]; FDA209, read-out: Minimum Inhibitory Concentration, inoculum 1 × 10^6 cells/ml): 25 µg/mL (≈ 79.8 µM); MIC ([11]; FDA209, read-out: Minimum Inhibitory Concentration, inoculum 1 × 10^8 cells/ml): 25 µg/mL (≈ 79.8 µM); MIC (Enterobacter cloacae; [22]): 0.4 µg/mL (≈ 1.28 µM); MIC (Enterobacter cloacae; [23]): 0.8 µg/mL (≈ 2.55 µM); MIC ([12]; IIDOX19, inoculum 1 × 10^6 cells/ml): 0.8 µg/mL (≈ 2.55 µM); MIC ([12]; IIDOX19, inoculum 1 × 10^8 cells/ml): 3.1 µg/mL (≈ 9.89 µM); MIC ([13]; read-out: Minimum Inhibitory Concentration, horse serum 0%, inoculum 10^6): 1.6 µg/mL (≈ 5.11 µM); MIC ([13]; read-out: Minimum Inhibitory Concentration, horse serum 0%, inoculum 10^8): 3.1 µg/mL (≈ 9.89 µM); MIC ([13]; read-out: Minimum Inhibitory Concentration, horse serum 10%, inoculum 10^6): 1.6 µg/mL (≈ 5.11 µM); MIC ([13]; read-out: Minimum Inhibitory Concentration, horse serum 10%, inoculum 10^8): 1.6 µg/mL (≈ 5.11 µM); MIC ([13]; read-out: Minimum Inhibitory Concentration, horse serum 20%, inoculum 10^6): 1.6 µg/mL (≈ 5.11 µM); MIC ([13]; read-out: Minimum Inhibitory Concentration, horse serum 20%, inoculum 10^8): 1.6 µg/mL (≈ 5.11 µM); MIC ([13]; read-out: Minimum Inhibitory Concentration, horse serum 40%, inoculum 10^6): 0.4 µg/mL (≈ 1.28 µM); MIC ([13]; read-out: Minimum Inhibitory Concentration, horse serum 40%, inoculum 10^8): 0.4 µg/mL (≈ 1.28 µM); MIC ([14]; IFO12710, read-out: Minimum Inhibitory Concentration, inoculum 10^6): 1.6 µg/mL (≈ 5.11 µM); MIC ([14]; IFO12710, read-out: Minimum Inhibitory Concentration, inoculum 10^8): 3.1 µg/mL (≈ 9.89 µM); MIC ([15]; IFO12659, inoculum 10^6, read-out: Minimum Inhibitory Concentration): 0.2 µg/mL (≈ 0.638 µM); MIC ([15]; IFO12659, inoculum 10^8, read-out: Minimum Inhibitory Concentration): 0.4 µg/mL (≈ 1.28 µM); MIC ([16]; IFO12718, inoculum 10^6, read-out: Minimum Inhibitory Concentration): 0.4 µg/mL (≈ 1.28 µM); MIC ([16]; IFO12718, inoculum 10^8, read-out: Minimum Inhibitory Concentration): 0.4 µg/mL (≈ 1.28 µM); MIC ([17]; IFO12568, read-out: Minimum Inhibitory Concentration, inoculum 10^6): 25 µg/mL (≈ 79.8 µM); MIC ([17]; IFO12568, read-out: Minimum Inhibitory Concentration, inoculum 10^8): 50 µg/mL (≈ 160 µM); MIC ([18]; IFO13266, read-out: Minimum Inhibitory Concentration, inoculum 10^6): 0.2 µg/mL (≈ 0.638 µM); MIC ([18]; IFO13266, read-out: Minimum Inhibitory Concentration, inoculum 10^8): 0.4 µg/mL (≈ 1.28 µM); MIC ([19]; IFO12981, inoculum 10^6, read-out: Minimum Inhibitory Concentration): 0.2 µg/mL (≈ 0.638 µM); MIC ([19]; IFO12981, inoculum 10^8, read-out: Minimum Inhibitory Concentration): 0.4 µg/mL (≈ 1.28 µM); MIC ([20]; IFO12658, inoculum 10^6, read-out: Minimum Inhibitory Concentration): 0.2 µg/mL (≈ 0.638 µM); MIC ([20]; IFO12658, inoculum 10^8, read-out: Minimum Inhibitory Concentration): 0.4 µg/mL (≈ 1.28 µM); MIC [21]: 3.1 µg/mL (≈ 9.89 µM)
